Measurements: patent US11130960B2, “Methods for conferring or enhancing herbicide resistance on plants and/or alga with protoporphyrinogen oxidase variants” (FARM HANNONG CO., LTD., priority 2014, dated 2021)

What was measured:
Experiment in all cases: Growth inhibition of BT3(ΔPPO) E. coli transformed with 98% homology variant, LB solid medium
Details in all cases: 1% agar LB solid medium, 37° C., 14~16 hours, light
CyPPO2 variant = format: cell-based, Oscillatoria nigro-viridis PCC 7112
Excerpt: (§1) To investigate amino acid sequence homology range of CyPPO2, CyPPO4 and CyPPO8 which maintain herbicide resistance, a part of the amino acid sequence of CyPPO2, CyPPO4 or CyPPO8 protein was replaced by a part of the amino acid sequence of NtPPO (tobacco-derived PPO gene). As a result, the amino acid sequence of the resulting CyPPO2 variant is represented by SEQ ID NO: 12, and its nucleotide sequence thereof is represented by SEQ ID NO: 13. […] Further, the amino acid sequence of the CyPPO4 variant is represented by SEQ ID NO: 14, and its nucleotide sequence thereof is represented by SEQ ID NO: 15. […] Further, the amino acid sequence of the CyPPO8 variant is represented by SEQ ID NO: 16, and its nucleotide sequence thereof is represented by SEQ ID NO: 17.
(§2) Herbicide resistance of the amino acid sequence variant of CyPPO2, the amino acid sequence variant of CyPPO4, and the amino acid sequence variant of CyPPO8 was investigated in PPO-deficient BT3 E. coli [BT3(ΔPPO)], and a specific experimental method is similar to that of Example 3. In the same manner as in Example 3, as a negative control, the wild-type PPO (wild-type AtPPO1) of Arabidopsis thaliana was employed as a reference for herbicide-sensitivity. As a positive control, the mutant AtPPO1 which was prepared by amino acid replacement of Y426M and S305L in the wild-type amino acid sequence was employed as a reference for herbicide-resistance.
(§3) An autoclave was used under conditions of 121° C. and 15 minutes, and an incubator was used at 37° C. with lighting of 169 μmol m^−2 s^−1 for a culture time of 14˜16 hours. A UV-visible spectrophotometer was used at 600 nm. PCR was performed under conditions of at 94° C. for 4 minutes, and 25 cycles (at 94° C. for 30 seconds, at 56˜60° C. for 30 seconds and at 72° C. for 3 minutes), at 72° C. for 5 minutes and at 4° C. for 5 minutes. Respective herbicides were prepared at a concentration of 200 mM in DMSO, and stored at −20° C. Before use, the herbicides were diluted and added to LB broth medium (containing […]).
(§4) Saturated cells were inoculated in 3 ml of LB liquid medium containing chloramphenicol, and then cultured at 37° C., 200 rpm for 5 hours. Density of the cultured cells was measured at 600 nm, and the transformants were diluted with LB liquid medium to have the same absorbance (OD600) per 1 ml thereof (OD600=0.5). Agar was added to LB liquid medium at a concentration of 1%, and then autoclaved. Chloramphenicol (34 μg/ml) and herbicide were added and mixed. Cells diluted equally was diluted at a density of 10^0, 10^−1, 10^−2, 10^−3, 10^−4, and 10^−5. Each 10 μl of the cells was dropped on 1% agar, LB solid medium, and cultured in a 37° C. incubator for 14˜16 hours (light condition: 169 μmol m^−2s^−1).
(§5) To prepare BT3(ΔPPO) competent cells, BT3(ΔPPO) strain was added to 5 ml of LB broth containing 50 μg/ml kanamycin and 20 μg/ml hematin, and cultured in a 37° C. shaking incubator for 12 hours in the dark. Thereafter, 5 ml of the culture was added to 100 ml of LB broth containing 20[…] μg/ml hematin, and cultured in a 37° C. shaking incubator in the dark until OD600 reached 0.5. BT3(ΔPPO) competent cells were prepared from the cultured E. coli using CaCl2 according to protocols for preparing competent cells. Next, to transform the BT3(ΔPPO) strain with the respective vectors harboring the CyPPO2 variant, CyPPO4 variant and CyPPO8 variant, 5 μl of the vector was added to 100 μl of BT3(ΔPPO) competent cells, and the mixture was mixed well, allowed to react on ice for 20 minutes, and then left at 42° C. for 40 seconds. After stabilization on ice for 2 minutes, 1 ml of LB broth was added to BT3(ΔPPO), and cultured at 37° C. for 1 hour with shaking. The cells cultured in the medium were collected according to the type of the gene insert, and then spread on LB solid medium containing chloramphenicol (34 μg/ml), and cultured at 37° C. for 12 hours or longer. Thereafter, single colonies thereof were cultured in LB liquid medium. […]

CyPPO4 variant = format: cell-based, Lyngbya sp. PCC 8106
Excerpt: as §1, §2, §3, §4, §5

CyPPO8 variant = format: cell-based, Halothece sp. PCC 7418
Excerpt: as §1, §2, §3, §4, §5

Measured: concentration at which growth inhibition was hardly observed

O=C(O)c1cc(Oc2ccc(C(F)(F)F)cc2Cl)ccc1[N+](=O)[O-] [Acifluorfen]
25 µM: CyPPO2 variant | CyPPO4 variant | CyPPO8 variant

C=CCOC(=O)C(C)(C)OC(=O)c1cc(-n2c(=O)cc(C(F)(F)F)n(C)c2=O)ccc1Cl [Butafenacil]
25 µM: CyPPO2 variant | CyPPO4 variant | CyPPO8 variant

C#CCN1C(=O)COc2cc(F)c(N3C(=O)C4=C(CCCC4)C3=O)cc21 [Flumioxazin]
25 µM: CyPPO2 variant | CyPPO4 variant | CyPPO8 variant

COC(=O)CSc1cc(/N=c2\sc(=O)n3n2CCCC3)c(F)cc1Cl [Fluthiacet-methyl]
25 µM: CyPPO2 variant | CyPPO4 variant | CyPPO8 variant

CS(=O)(=O)NC(=O)c1cc(Oc2ccc(C(F)(F)F)cc2Cl)ccc1[N+](=O)[O-] [Fomesafen]
25 µM: CyPPO2 variant | CyPPO4 variant | CyPPO8 variant

CC(C)Oc1cc(-n2nc(C(C)(C)C)oc2=O)c(Cl)cc1Cl [Oxadiazon]
25 µM: CyPPO2 variant | CyPPO4 variant | CyPPO8 variant

CCOc1cc(Oc2ccc(C(F)(F)F)cc2Cl)ccc1[N+](=O)[O-] [Oxyfluorfen]
25 µM: CyPPO2 variant | CyPPO4 variant | CyPPO8 variant

CC(C)=C1OC(=O)N(c2cc(OC3CCCC3)c(Cl)cc2F)C1=O [Pentoxazone]
25 µM: CyPPO2 variant | CyPPO4 variant | CyPPO8 variant

C#CCN(C)c1c(C#N)cnn1-c1nn2c(c1Cl)CCCC2 [Pyraclonil]
25 µM: CyPPO2 variant | CyPPO4 variant | CyPPO8 variant

CCOC(=O)COc1cc(-c2nn(C)c(OC(F)F)c2Cl)c(F)cc1Cl [Pyraflufen-ethyl]
25 µM: CyPPO2 variant | CyPPO4 variant | CyPPO8 variant

CC(C)N(C)S(=O)(=O)NC(=O)c1cc(-n2c(=O)cc(C(F)(F)F)n(C)c2=O)c(F)cc1Cl [Saflufenacil]
25 µM: CyPPO2 variant | CyPPO4 variant | CyPPO8 variant

Cc1nn(-c2cc(NS(C)(=O)=O)c(Cl)cc2Cl)c(=O)n1C(F)F [Sulfentrazone]
25 µM: CyPPO2 variant | CyPPO4 variant | CyPPO8 variant

COC(=O)CCNC(=O)C(C)Sc1cc(-n2c(=O)cc(C(F)(F)F)n(C)c2=O)c(F)cc1Cl (stereo not drawn) [Tiafenacil]
25 µM: CyPPO2 variant | CyPPO4 variant | CyPPO8 variant
